# Data from patent US11827629B2, “CDGSH iron sulfur domain 2 activators and use thereof” (National Health Research Institutes, priority 2021, dated 2023).
# Test system: Cisd2 promoter with firefly luciferase reporter
# Assay: Cisd2-luciferase reporter assay in HEK293-CISD2 cells
# Assay type: cell-based
# Conditions: Homo sapiens, 24 hours incubation, luciferase luminescence
# Procedure: A typical in vitro screening method includes the following steps: (i) obtaining an initial level of Cisd2 in a batch of human embryonic kidney cells 293 (HEK-293 cells) that express Cisd2, (ii) treating the batch of HEK-293 cells with a compound of this invention, and (iii) analyzing the level of Cisd2 after the treatment, thereby determining the potency of the compound as a Cisd2 activator.
# Compounds 1-109 were tested for increasing the level of Cisd2 in human embryonic kidney cells 293 (HEK293), a transfected cell line expressing Cisd2, using the Cisd2-luciferase reporter assay as follows.
# The transfected HEK293 cells stably expressed Cisd2 promoter with firefly luciferase reporter (HEK293-CISD2). They were kept in Dulbecco's modified Eagle's medium (DMEM) (Gibco, New York, NY, USA). Culture medium was supplemented with 10% heat-inactivated fetal bovine serum (FBS), 2 mM L-Glutamine, 1 mM sodium pyruvate, 0.1% MEM Non-Essential Amino Acids, 1 ug/ml puromycin and 1% penicillin/streptomycin (HyClone, Logan, UT, USA). The cells were maintained at 37° C. in an incubator (Thermo Fisher Scientific, New York, NY, USA) with an atmosphere of 5% CO2. The stably transfected cells were seeded in 384-well plates at a density of 3×10^3 cells/well. After incubation with tested compounds at 37° C. for 24 hours, ONE-Glo™ Luciferase Assay System (Promega, Madison, WI, USA) was added at room temperature for 5 minutes to detect any luciferase activity. Luminescence intensity was registered using plate reader Victor^2V (PerkinElmer, Boston, MA, USA).
# EC50 values in this table are presented in three classes, i.e., A: <1 μM, B: 1 μM-5 μM, and C: 5 μM-10 μM.
row,EC50 [nM],SMILES
1,< 1000,"O=C(CS(=O)(=O)c1cccc(F)c1)N1Cc2ccccc2C1 [Compound 86, 1-(1,3-dihydro-2H-isoindol-2-yl)-2-[(3-fluorophenyl)sulfonyl]ethanone]"
2,< 1000,"O=C(CS(=O)(=O)c1ccc(F)cc1)N1Cc2ccccc2C1 [Compound 87, 1-(1,3-dihydro-2H-isoindol-2-yl)-2-[(4-fluorophenyl)sulfonyl]ethanone]"
3,< 1000,"O=C(CS(=O)(=O)c1ccc(Cl)s1)N1Cc2ccccc2C1 [Compound 88, 2-[(5-chlorothiophen-2-yl)sulfonyl]-1-(1,3-dihydro-2H-isoindol-2-yl)ethanone]"
4,5000 to 10000,"O=C(CS(=O)(=O)c1cc(F)ccc1F)N1Cc2ccccc2C1 [Compound 89, 2-[(2,5-difluorophenyl)sulfonyl]-1-(1,3-dihydro-2H-isoindol-2-yl)ethanone]"
5,< 1000,"O=C(CS(=O)(=O)c1ccccc1F)N1Cc2ccccc2C1 [Compound 90, 1-(1,3-dihydro-2H-isoindol-2-yl)-2-[(2-fluorophenyl)sulfonyl]ethanone]"
6,< 1000,"O=C(CS(=O)(=O)c1ccc(F)cc1F)N1Cc2ccccc2C1 [Compound 91, 2-[(2,4-difluorophenyl)sulfonyl]-1-(1,3-dihydro-2H-isoindol-2-yl)ethanone]"
7,< 1000,"O=C(CS(=O)(=O)c1ccccc1F)N1Cc2ccc(F)cc2C1 [Compound 92, 1-(5-fluoro-1,3-dihydro-2H-isoindol-2-yl)-2-[(2-fluorophenyl)sulfonyl]ethanone]"
8,< 1000,"O=C(CS(=O)(=O)c1ccccc1)N1Cc2ccc(F)cc2C1 [Compound 93, 1-(5-fluoro-1,3-dihydro-2H-isoindol-2-yl)-2-(phenylsulfonyl)ethanone]"
9,< 1000,"Cc1csc(S(=O)(=O)CC(=O)N2Cc3ccccc3C2)n1 [Compound 94, 1-(1,3-dihydro-2H-isoindol-2-yl)-2-[(4-methyl-1,3-thiazol-2-yl)sulfonyl]ethanone]"
10,< 1000,"O=C(CS(=O)(=O)c1ccccc1F)N1Cc2cc(F)c(F)cc2C1 [Compound 95, 1-(5,6-difluoro-1,3-dihydro-2H-isoindol-2-yl)-2-[(2-fluorophenyl)sulfonyl]ethanone]"
11,< 1000,"O=C(CS(=O)(=O)c1ccccc1)N1Cc2cccc(F)c2C1 [Compound 96, 1-(4-fluoro-1,3-dihydro-2H-isoindol-2-yl)-2-(phenylsulfonyl)ethanone]"
12,< 1000,"O=C(CS(=O)(=O)c1cccc(F)n1)N1Cc2ccccc2C1 [Compound 97, 1-(1,3-dihydro-2H-isoindol-2-yl)-2-[(6-fluoropyridin-2-yl)sulfonyl]ethanone]"
13,< 1000,"O=C(CS(=O)(=O)c1cccc(Cl)c1Cl)N1Cc2ccccc2C1 [Compound 98, 2-[(2,3-dichlorophenyl)sulfonyl]-1-(1,3-dihydro-2H-isoindol-2-yl)ethanone]"
14,< 1000,"O=C(CS(=O)(=O)c1ccccc1Cl)N1Cc2ccccc2C1 [Compound 99, 2-[(2-chlorophenyl)sulfonyl]-1-(1,3-dihydro-2H-isoindol-2-yl)ethanone]"
15,1000 to 5000,"O=C(CS(=O)(=O)c1ccccn1)N1Cc2ccc(N3CCOCC3)cc2C1 [Compound 100, 1-[5-(morpholin-4-yl)-1,3-dihydro-2H-isoindol-2-yl]-2-(pyridin-2-ylsulfonyl)ethanone]"
16,< 1000,"O=C(CS(=O)(=O)c1ccc(F)cn1)N1Cc2ccccc2C1 [Compound 101, 1-(1,3-dihydro-2H-isoindol-2-yl)-2-[(5-fluoropyridin-2-yl)sulfonyl]ethanone]"
17,1000 to 5000,"Cn1ccc(S(=O)(=O)CC(=O)N2Cc3ccccc3C2)n1 [Compound 102, 1-(1,3-dihydro-2H-isoindol-2-yl)-2-[(1-methyl-1H-pyrazol-3-yl)sulfonyl]ethanone]"
18,< 1000,"O=C(CS(=O)(=O)c1ncccc1F)N1Cc2ccccc2C1 [Compound 103, 1-(1,3-dihydro-2H-isoindol-2-yl)-2-[(3-fluoropyridin-2-yl)sulfonyl]ethanone]"
19,< 1000,"O=C(CS(=O)(=O)c1ncco1)N1Cc2ccccc2C1 [Compound 104, 1-(1,3-dihydro-2H-isoindol-2-yl)-2-(1,3-oxazol-2-ylsulfonyl)ethanone]"
20,5000 to 10000,"O=C(CS(=O)(=O)c1ccc(C(F)F)s1)N1Cc2ccccc2C1 [Compound 105, 2-{[5-(difluoromethyl)thiophen-2-yl]sulfonyl}-1-(1,3-dihydro-2H-isoindol-2-yl)ethanone]"
21,< 1000,"O=C(CCS(=O)(=O)c1ccccc1Cl)N1Cc2ccccc2C1 [Compound 106, 3-[(2-chlorophenyl)sulfonyl]-1-(1,3-dihydro-2H-isoindol-2-yl)propan-1-one]"
22,< 1000,"O=C(CCS(=O)(=O)c1ccccc1)N1Cc2ccccc2C1 [Compound 107, 1-(1,3-dihydro-2H-isoindol-2-yl)-3-(phenylsulfonyl)propan-1-one]"
23,1000 to 5000,"O=C(CCS(=O)(=O)c1cccc(F)n1)N1Cc2ccccc2C1 [Compound 108, 1-(1,3-dihydro-2H-isoindol-2-yl)-3-[(6-fluoropyridin-2-yl)sulfonyl]propan-1-one]"
24,< 1000,"O=C(CS(=O)(=O)c1ncco1)N1Cc2ccc(F)cc2C1 [Compound 109, 1-(5-fluoro-1,3-dihydro-2H-isoindol-2-yl)-2-(1,3-oxazol-2-ylsulfonyl)ethanone]"
